Measured values published in ChEMBL document CHEMBL4825686, “HTS-based discovery and optimization of novel positive allosteric modulators of the α7 nicotinic acetylcholine receptor” (Eur J Med Chem, 2021).
Values after ≈ are worked out from the molar mass of the structure shown. Active and inactive are the calls of the source. No cut-off for these calls is given here.

Legend:
[1] = Ratio of drug level in Wistar rat brain to plasma at 10 mg/kg, ip measured after 35 mins by HPLC-MS/MS analysis; type: ADME, organism-based; settings: read-out: BPR
[2] = target: GABA-A receptor; alpha-5/beta-3/gamma-2 (Homo sapiens) (UniProt P18507+P28472+P31644); test: Activation of human alpha5beta3gamma2 GABAA receptor expressed in HEK293 cells assessed as enhancement of GABA induced channel current response at 1 to 10 uM measured after 7 to 10 mins at -80 mV holding potential by whole-cell patch clamp assay; type: cell-based; settings: dose 1-10 µM, time 7-10 min
[3] = target: GABA-A receptor; alpha-1/beta-3/gamma-2 (Homo sapiens) (UniProt P14867+P18507+P28472); test: Activation of human alpha1beta3gamma2 GABAA receptor expressed in HEK293 cells assessed as enhancement of GABA induced channel current response at 1 to 10 uM measured after 7 to 10 mins at -80 mV holding potential by whole-cell patch clamp assay; type: cell-based; settings: dose 1-10 µM, time 7-10 min
[4] = Kinetic solubility of compound; type: physicochemical; settings: read-out: Kinetic_solubility
[5] = Metabolic stability in NMRI mouse liver microsomes assessed as intrinsic clearance at 1 uM measured per mg protein upto 40 mins; type: ADME, Microsome; settings: read-out: CLH
[6] = target: Sigma non-opioid intracellular receptor 1 (Homo sapiens) (UniProt Q99720); test: Binding affinity to human recombinant sigma-1 receptor assessed as displacement of radioligand at 10 uM by displacement binding assay
[7] = target: T1, 5-hydroxytryptamine receptor 3A (Homo sapiens) (UniProt P46098); test: Displacement of [3H]GR65630 from human 5-HT3 receptor expressed in HEK293 cells at 10 uM by displacement binding assay; type: cell-based
T1 sequence (whole entry): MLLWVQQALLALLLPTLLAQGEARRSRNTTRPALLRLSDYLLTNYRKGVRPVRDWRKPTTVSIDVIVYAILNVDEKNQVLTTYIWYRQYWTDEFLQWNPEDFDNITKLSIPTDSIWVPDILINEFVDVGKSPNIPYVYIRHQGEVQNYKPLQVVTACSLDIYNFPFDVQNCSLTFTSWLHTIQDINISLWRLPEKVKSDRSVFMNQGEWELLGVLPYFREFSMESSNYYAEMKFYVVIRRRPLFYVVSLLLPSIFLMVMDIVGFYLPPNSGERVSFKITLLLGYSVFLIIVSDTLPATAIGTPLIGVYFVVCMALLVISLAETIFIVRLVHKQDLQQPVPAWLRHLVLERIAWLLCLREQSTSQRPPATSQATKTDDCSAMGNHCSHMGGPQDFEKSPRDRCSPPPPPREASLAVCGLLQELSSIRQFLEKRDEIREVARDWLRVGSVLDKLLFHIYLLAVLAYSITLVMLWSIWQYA

[8] = target: T2, Glutamate NMDA receptor (Rattus norvegicus) (UniProt P35439+Q00959+Q00960+Q00961+Q62645+Q8VHN2+Q9R1M7); test: Displacement of [3H]MDL105519 from NMDA receptor in Wistar rat cerebral cortex at 10 uM by displacement binding assay; type: tissue-based
[9] = target: T2, Glutamate NMDA receptor (Rattus norvegicus); test: Displacement of [3H]TCP from NMDA receptor in Wistar rat cerebral cortex at 10 uM by displacement binding assay; type: tissue-based
[10] = target: GABA-A receptor; anion channel (Rattus norvegicus) (UniProt O09028+P15431+P18506+P18508+P19969+P20236+P23574+P23576+P28471+P28473+P30191+P62813+P63079+P63138+Q91ZM7+Q9ES14); test: Displacement of [3H]flunitrazepam from GABAA receptor in Wistar rat brain without cerebellum at 10 uM by displacement binding assay; type: tissue-based
[11] = Efflux ratio of apparent permeability from basolateral to apical side over apical to basolateral side in vinblastine-treated human Caco-2 cells expressing P-glycoprotein at 10 uM incubated for 120 mins by HPLC analysis; type: ADME
Rattus norvegicus = test: Cognitive enhancing effect in Hannover Wistar rat assessed as increase in novel object recognition index at 1 to 10 mg/kg, po administered 30 mins prior to recognition trail by novel object recognition test; type: functional, organism-based; settings: dose 1-10 mg/kg
[12] = Drug uptake in NMRI mouse brain at 0.3 mg/kg, ip measured after 1 hr by HPLC-MS/MS analysis; type: ADME, organism-based; settings: read-out: Ct
[13] = Drug uptake in NMRI mouse brain at 3 mg/kg, ip measured after 1 hr by HPLC-MS/MS analysis; type: ADME, organism-based; settings: read-out: Ct
[14] = Drug uptake in NMRI mouse brain at 10 mg/kg, ip measured after 1 hr by HPLC-MS/MS analysis; type: ADME, organism-based; settings: read-out: Ct
[15] = Plasma concentration in NMRI mouse at 3 mg/kg, ip measured after 1 hr by HPLC-MS/MS analysis; type: ADME, organism-based
[16] = Ratio of drug level in NMRI mouse brain to plasma at 1 mg/kg, ip measured after 1 hr by HPLC-MS/MS analysis; type: ADME, organism-based; settings: read-out: BPR
[17] = Drug uptake in Wistar rat brain at 3 mg/kg, ip measured after 35 mins by HPLC-MS/MS analysis; type: ADME, organism-based; settings: read-out: Ct
[18] = Plasma concentration in Wistar rat at 1 mg/kg, ip measured after 35 mins by HPLC-MS/MS analysis; type: ADME, organism-based
[19] = Plasma concentration in Wistar rat at 10 mg/kg, ip measured after 35 mins by HPLC-MS/MS analysis; type: ADME, organism-based
[20] = Mutagenicity in Salmonella typhimurium TA1535 in presence of rat liver S9 fraction by AMES test; type: toxicity, subcellular; settings: salmonella enterica subsp. enterica serovar typhimurium
[21] = Mutagenicity in Salmonella typhimurium TA98 in absence of rat liver S9 fraction by AMES test; type: toxicity; settings: salmonella enterica subsp. enterica serovar typhimurium
[22] = Mutagenicity in Salmonella typhimurium TA100 in absence of rat liver S9 fraction by AMES test; type: toxicity; settings: salmonella enterica subsp. enterica serovar typhimurium
[23] = Mutagenicity in Salmonella typhimurium TA1537 in presence of rat liver S9 fraction by AMES test; type: toxicity, subcellular; settings: salmonella enterica subsp. enterica serovar typhimurium
[24] = Mutagenicity in Escherichia coli WP2 uvrA in presence of rat liver S9 fraction by AMES test; type: toxicity, subcellular
[25] = Mutagenicity in Escherichia coli WP2 uvrA in absence of rat liver S9 fraction by AMES test; type: toxicity

Sigma non-opioid intracellular receptor 1 (Homo sapiens), sequence (Q99720 whole entry): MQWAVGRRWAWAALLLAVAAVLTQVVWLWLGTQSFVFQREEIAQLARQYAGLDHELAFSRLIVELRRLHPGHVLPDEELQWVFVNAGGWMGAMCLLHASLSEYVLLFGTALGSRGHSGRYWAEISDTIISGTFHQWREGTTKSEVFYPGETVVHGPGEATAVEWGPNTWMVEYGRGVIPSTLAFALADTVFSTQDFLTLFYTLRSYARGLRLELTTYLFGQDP

Cc1ccc(CN2CCN(C(=O)C(=O)Nc3ccc4c(ccn4C)c3)CC2)cc1
Kp at 35 min [1]: 4.01
Activity [2]: < 7%
Activity [3]: < 7%
solubility kinetic [4]: 41.6 µM (≈ 16.2 µg/mL)
microsomal CLint at 1 µM [5]: 55 µL/min/mg
inhibition [6]: 55%
inhibition [7]: < 15%
inhibition [8]: < 15%
inhibition [9]: < 15%
inhibition [10]: < 15%
efflux ratio at 2 h, 10 µM [11]: 0.7
Activity (Rattus norvegicus): inactive
concentration at 1 h [12]: 5.5 nM
concentration at 1 h [13]: 64 nM
concentration at 1 h [14]: 233 nM
concentration at 1 h [15]: 37 nM
Kp at 1 h [16]: 1.88
concentration at 35 min [17]: 207 nM
concentration at 35 min [18]: 28 nM
concentration at 35 min [19]: 196 nM
Activity [20]: Non-Toxic
Activity [21]: Non-Toxic
Activity [22]: Non-Toxic
Activity [23]: Non-Toxic
Activity [24]: Non-Toxic
Activity [25]: Non-Toxic
